Measured values taken from ChEMBL document CHEMBL4602617, “Discovery and optimization of heteroaryl piperazines as potent and selective PI3Kδ inhibitors” (Bioorg Med Chem Lett, 2020).

Experiments:
[1] = target: Tyrosine-protein kinase Mer (Homo sapiens, UniProt Q12866); experiment: Inhibition of recombinant human GST-tagged MER (578 to 872 residues) expressed in baculovirus expression system using tyrosine-2 peptide as substrate incubated for 60 mins in presence of ATP by Z'-LYTE assay
[2] = target: Platelet-derived growth factor receptor alpha (Homo sapiens, UniProt P16234, T674I); experiment: Inhibition of recombinant human GST-tagged PDGFRalpha cytoplasmic domain (550 to 1089 residues) harboring T674I mutant expressed in baculovirus expression system using tyrosine-4 peptide as substrate incubated for 60 mins in presence of ATP by Z'-LYTE assay
[3] = target: B1 bradykinin receptor (Homo sapiens) (UniProt P46663); experiment: Inhibition of human B1 bradykinin receptor at 10 uM relative to control
[4] = target: Somatostatin receptor type 2 (Homo sapiens) (UniProt P30874); experiment: Displacement of [125I]Tyr11-Somatostatin 14 from recombinant full length human SST2 expressed in CHO-K1 cells at 10 uM after 4 hrs by radiometric scintillation analysis relative to control; assay type: cell-based
[5] = target: Homeodomain-interacting protein kinase 1 (Homo sapiens, UniProt Q86Z02); experiment: Inhibition of recombinant human GST-tagged HIPK1 catalytic domain expressed in baculovirus expression system using serine/threonine-9 peptide as substrate incubated for 60 mins in presence of ATP by Z'-LYTE assay
[6] = target: Nuclear receptor subfamily 1 group I member 2 (Homo sapiens, UniProt O75469); experiment: Inhibition of PXR (unknown origin)
Chain of Nuclear receptor subfamily 1 group I member 2 (O75469 whole entry): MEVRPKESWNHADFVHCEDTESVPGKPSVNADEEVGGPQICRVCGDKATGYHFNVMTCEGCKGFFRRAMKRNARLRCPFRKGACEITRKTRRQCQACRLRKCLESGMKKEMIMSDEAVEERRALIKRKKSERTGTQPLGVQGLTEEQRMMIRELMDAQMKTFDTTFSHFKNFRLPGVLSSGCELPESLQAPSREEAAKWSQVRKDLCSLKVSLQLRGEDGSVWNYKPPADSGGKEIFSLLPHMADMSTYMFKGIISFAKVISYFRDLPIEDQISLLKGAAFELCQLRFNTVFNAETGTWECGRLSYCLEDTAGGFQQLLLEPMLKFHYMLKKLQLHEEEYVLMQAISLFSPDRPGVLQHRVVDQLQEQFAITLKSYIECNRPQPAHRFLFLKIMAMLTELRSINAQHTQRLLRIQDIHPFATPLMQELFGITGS

[7] = target: Glutamate NMDA receptor (Rattus norvegicus) (UniProt P35439+Q00959+Q00960+Q00961+Q62645+Q8VHN2+Q9R1M7); experiment: Displacement of [3H]CGP-39653 from glutamate NMDA receptor in Wistar rat cerebral cortical membranes at 10 uM incubated for 20 mins by radiometric scintillation analysis relative to control
Ephrin type-B receptor 2 = Ephrin type-B receptor 2 (Homo sapiens, UniProt P29323); experiment: Inhibition of recombinant human GST-tagged EPHB2 catalytic domain (616 to 884 residues) expressed in baculovirus expression system using tyrosine-2 peptide as substrate incubated for 60 mins in presence of ATP by Z'-LYTE assay
Chain of Ephrin type-B receptor 2 (P29323 whole entry, the tested form may be a part): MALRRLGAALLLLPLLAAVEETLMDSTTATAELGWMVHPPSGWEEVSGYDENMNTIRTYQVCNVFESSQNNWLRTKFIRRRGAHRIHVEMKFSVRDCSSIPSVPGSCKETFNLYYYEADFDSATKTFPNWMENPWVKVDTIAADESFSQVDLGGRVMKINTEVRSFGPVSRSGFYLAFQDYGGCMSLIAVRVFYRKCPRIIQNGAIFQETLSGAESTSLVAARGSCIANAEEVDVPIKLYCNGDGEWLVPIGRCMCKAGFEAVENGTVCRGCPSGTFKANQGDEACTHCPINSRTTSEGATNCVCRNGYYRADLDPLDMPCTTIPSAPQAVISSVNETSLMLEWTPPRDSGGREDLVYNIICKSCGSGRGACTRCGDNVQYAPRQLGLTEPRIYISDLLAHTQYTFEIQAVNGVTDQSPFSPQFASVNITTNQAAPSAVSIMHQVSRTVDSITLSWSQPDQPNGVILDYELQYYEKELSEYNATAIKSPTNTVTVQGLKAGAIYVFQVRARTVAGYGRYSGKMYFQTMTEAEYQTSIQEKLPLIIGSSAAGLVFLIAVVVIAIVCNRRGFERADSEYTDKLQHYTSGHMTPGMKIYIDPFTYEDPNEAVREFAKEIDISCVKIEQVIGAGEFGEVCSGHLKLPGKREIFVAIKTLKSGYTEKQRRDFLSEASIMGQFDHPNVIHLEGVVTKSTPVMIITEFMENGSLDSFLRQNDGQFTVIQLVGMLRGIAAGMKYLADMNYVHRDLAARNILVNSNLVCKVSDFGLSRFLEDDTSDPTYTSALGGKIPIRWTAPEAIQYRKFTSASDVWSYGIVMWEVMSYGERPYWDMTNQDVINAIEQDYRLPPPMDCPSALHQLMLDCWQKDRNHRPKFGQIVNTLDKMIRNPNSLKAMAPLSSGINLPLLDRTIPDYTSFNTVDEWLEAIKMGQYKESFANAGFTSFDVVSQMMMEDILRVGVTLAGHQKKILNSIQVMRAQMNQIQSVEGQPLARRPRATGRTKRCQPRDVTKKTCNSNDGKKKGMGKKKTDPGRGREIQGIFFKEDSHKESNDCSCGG

[8] = target: Mitogen-activated protein kinase 10 (Homo sapiens, UniProt P53779); experiment: Inhibition of recombinant full length human GST-tagged JNK3 expressed in baculovirus expression system using serine/threonine-4 peptide as substrate incubated for 60 mins in presence of ATP by Z'-LYTE assay
[9] = target: Alpha-2A adrenergic receptor (Homo sapiens) (UniProt P08913); experiment: Displacement of [3H]rauwolscine from full-length recombinant human alpha2A receptor expressed in CHOK1 cells at 10 uM measured after 60 mins by scintillation counting method relative to control; assay type: cell-based; conditions: CHO-K1
[10] = target: Protein kinase C epsilon type (Homo sapiens, UniProt Q02156); experiment: Inhibition of recombinant full length human GST-tagged PRKCE expressed in insect expression system using serine/threonine-7 peptide as substrate incubated for 60 mins in presence of ATP by Z'-LYTE assay
CDK9/cyclin T1 = CDK9/cyclin T1 (Homo sapiens, UniProt P50750); experiment: Inhibition of recombinant full length human His-tagged CDK9/CyclinT1 expressed in baculovirus expression system using CDK7/9tide peptide as substrate incubated for 60 mins in presence of ATP by Adapta assay
Chain of CDK9/cyclin T1 (O60563 whole entry): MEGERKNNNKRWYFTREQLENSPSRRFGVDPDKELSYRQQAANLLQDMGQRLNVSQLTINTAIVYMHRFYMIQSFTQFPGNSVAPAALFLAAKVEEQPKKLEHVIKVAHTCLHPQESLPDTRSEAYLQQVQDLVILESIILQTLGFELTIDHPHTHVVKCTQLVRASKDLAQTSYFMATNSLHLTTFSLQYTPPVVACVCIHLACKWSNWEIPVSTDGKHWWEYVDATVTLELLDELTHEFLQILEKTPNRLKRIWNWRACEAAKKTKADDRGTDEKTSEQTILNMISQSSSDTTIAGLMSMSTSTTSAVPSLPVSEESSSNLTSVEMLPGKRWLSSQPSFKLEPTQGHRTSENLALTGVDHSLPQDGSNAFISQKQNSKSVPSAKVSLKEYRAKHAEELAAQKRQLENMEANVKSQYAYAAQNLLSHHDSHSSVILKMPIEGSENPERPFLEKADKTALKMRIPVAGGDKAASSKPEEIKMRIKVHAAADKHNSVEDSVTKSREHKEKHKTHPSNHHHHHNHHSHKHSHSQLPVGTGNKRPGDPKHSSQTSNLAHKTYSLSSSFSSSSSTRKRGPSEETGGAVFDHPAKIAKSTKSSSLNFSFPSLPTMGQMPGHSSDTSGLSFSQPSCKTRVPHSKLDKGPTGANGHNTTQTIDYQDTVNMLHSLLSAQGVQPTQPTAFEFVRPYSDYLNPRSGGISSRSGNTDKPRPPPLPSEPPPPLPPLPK
Chain of CDK9/cyclin T1 (P50750 whole entry): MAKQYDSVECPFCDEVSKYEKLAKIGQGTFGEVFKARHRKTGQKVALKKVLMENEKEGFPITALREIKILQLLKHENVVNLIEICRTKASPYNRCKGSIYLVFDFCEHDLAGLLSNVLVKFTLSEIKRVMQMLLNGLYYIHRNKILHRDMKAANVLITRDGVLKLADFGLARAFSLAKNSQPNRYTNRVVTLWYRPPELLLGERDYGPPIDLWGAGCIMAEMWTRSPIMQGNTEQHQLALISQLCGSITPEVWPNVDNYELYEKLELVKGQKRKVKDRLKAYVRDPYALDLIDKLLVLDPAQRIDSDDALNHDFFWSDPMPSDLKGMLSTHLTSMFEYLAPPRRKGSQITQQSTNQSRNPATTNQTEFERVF

[11] = target: C-C chemokine receptor type 1 (Homo sapiens) (UniProt P32246); experiment: Displacement of [125I]MIP-1alpha from recombinant full length human recombinant CCR1 expressed in Chem2 cells at 10 uM measured after 3 hrs by radiometric scintillation analysis relative to control; assay type: cell-based
Aurora kinase A = Aurora kinase A (Homo sapiens, UniProt O14965); experiment: Inhibition of recombinant human full length AURKA expressed in baculovirus expression system using Ser/Thr-01 peptide as substrate after 1 hr in presence of ATP by Z'LYTE assay
Chain of Aurora kinase A (O14965 whole entry): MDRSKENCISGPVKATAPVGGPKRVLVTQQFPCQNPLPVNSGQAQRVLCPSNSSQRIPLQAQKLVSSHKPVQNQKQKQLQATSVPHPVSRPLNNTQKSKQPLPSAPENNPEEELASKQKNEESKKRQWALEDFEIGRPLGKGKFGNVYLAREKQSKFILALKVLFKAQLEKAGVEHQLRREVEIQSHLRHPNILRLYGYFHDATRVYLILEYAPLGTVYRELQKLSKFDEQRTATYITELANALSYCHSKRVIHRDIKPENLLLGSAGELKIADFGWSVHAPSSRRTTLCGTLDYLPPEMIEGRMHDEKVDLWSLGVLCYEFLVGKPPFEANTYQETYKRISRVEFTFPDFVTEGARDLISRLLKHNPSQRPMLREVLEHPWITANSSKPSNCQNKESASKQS

[12] = target: Mitogen-activated protein kinase kinase kinase kinase 2 (Homo sapiens, UniProt Q12851); experiment: Inhibition of recombinant full length human HIs-tagged MAP4K2 expressed in baculovirus expression system using serine/threonine-7 peptide as substrate incubated for 60 mins in presence of ATP by Z'-LYTE assay
[13] = target: Phosphatidylinositol 3-kinase catalytic subunit type 3 (Homo sapiens, UniProt Q8NEB9); experiment: Inhibition of recombinant full length human GST-tagged PIK3C3 expressed in baculovirus expression system using PI lipid as substrate incubated for 60 mins in presence of ATP by Adapta assay
[14] = target: BDNF/NT-3 growth factors receptor (Homo sapiens, UniProt Q16620); experiment: Inhibition of recombinant human His-tagged NTRK2 cytoplasmic domain (526 to 838 residues) expressed in baculovirus expression system using tyrosine-01 peptide as substrate incubated for 60 mins in presence of ATP by Z'-LYTE assay
Insulin receptor = Insulin receptor (Homo sapiens, UniProt P06213); experiment: Inhibition of recombinant human GST-tagged INSR cytoplasmic domain expressed in baculovirus expression system using tyrosine-1 peptide as substrate incubated for 60 mins in presence of ATP by Z'-LYTE assay
Focal adhesion kinase 1 = Focal adhesion kinase 1 (Homo sapiens, UniProt Q05397); experiment: Inhibition of recombinant full length human GST-tagged PTK2 expressed in baculovirus expression system using tyr07 peptide as substrate incubated for 60 mins in presence of ATP by Z'-LYTE assay
[15] = target: Tyrosine-protein kinase JAK2 (Homo sapiens, UniProt O60674); experiment: Inhibition of recombinant GST-tagged human JAK2-JH1/JH2 domain (574 to 1154 residues) expressed in baculovirus expression system using Tyr 06 as substrate after 1 hr in presence of ATP by Z'LYTE assay
[16] = target: Calcium/calmodulin-dependent protein kinase type 1D (Homo sapiens, UniProt Q8IU85); experiment: Inhibition of recombinant full length human His-tagged CAMK1delta expressed in baculovirus expression system using serine/threonine-25 peptide as substrate incubated for 60 mins in presence of ATP by Z'-LYTE assay
Chain of Calcium/calmodulin-dependent protein kinase type 1D (Q8IU85 whole entry): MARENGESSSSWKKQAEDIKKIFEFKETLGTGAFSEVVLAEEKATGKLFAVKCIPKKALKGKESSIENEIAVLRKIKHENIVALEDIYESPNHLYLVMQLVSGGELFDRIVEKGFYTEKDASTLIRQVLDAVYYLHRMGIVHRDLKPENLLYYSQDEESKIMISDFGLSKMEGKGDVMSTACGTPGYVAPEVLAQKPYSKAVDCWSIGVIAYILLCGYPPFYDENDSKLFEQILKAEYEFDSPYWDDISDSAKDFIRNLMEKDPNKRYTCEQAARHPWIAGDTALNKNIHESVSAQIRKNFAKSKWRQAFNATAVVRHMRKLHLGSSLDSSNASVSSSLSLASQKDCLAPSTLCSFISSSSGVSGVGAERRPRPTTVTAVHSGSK

Aurora kinase C = Aurora kinase C (Homo sapiens, UniProt Q9UQB9); experiment: Inhibition of recombinant full length GST-tagged human AURKC expressed in baculovirus expression system using Ser/Thr-19 peptide as substrate incubated for 60 mins in presence of ATP by Z'-LYTE assay
Chain of Aurora kinase C (Q9UQB9 whole entry): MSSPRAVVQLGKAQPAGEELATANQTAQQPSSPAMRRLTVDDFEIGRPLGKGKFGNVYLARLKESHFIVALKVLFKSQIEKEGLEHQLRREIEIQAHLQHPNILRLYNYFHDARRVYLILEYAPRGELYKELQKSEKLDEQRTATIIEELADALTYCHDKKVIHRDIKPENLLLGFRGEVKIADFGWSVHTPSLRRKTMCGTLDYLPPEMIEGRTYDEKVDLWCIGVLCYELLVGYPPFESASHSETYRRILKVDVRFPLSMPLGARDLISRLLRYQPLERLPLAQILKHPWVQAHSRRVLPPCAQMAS

[17] = target: Melanocortin receptor 3 (Homo sapiens) (UniProt P41968); experiment: Displacement of [125I]NDP-alpha-MSH from full length human recombinant MC3 receptor expressed in HEK293 cells at 10 uM measured after 60 mins by radiometric scintillation analysis relative to control; assay type: cell-based
Chain of Melanocortin receptor 3 (Homo sapiens) (P41968 whole entry, the tested form may be a part): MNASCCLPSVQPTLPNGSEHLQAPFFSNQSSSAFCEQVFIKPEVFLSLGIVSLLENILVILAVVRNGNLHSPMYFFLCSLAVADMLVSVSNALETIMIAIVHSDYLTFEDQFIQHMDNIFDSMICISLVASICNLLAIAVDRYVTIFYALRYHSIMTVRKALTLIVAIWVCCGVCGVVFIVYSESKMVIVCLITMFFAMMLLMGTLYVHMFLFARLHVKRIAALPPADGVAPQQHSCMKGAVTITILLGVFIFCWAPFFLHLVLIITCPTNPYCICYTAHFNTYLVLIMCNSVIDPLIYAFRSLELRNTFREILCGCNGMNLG

[18] = target: Serine/threonine-protein kinase PAK 4 (Homo sapiens, UniProt O96013); experiment: Inhibition of recombinant human GST-tagged PAK4 catalytic domain (295 to 591 residues) expressed in baculovirus expression system using serine/threonine-20 peptide as substrate incubated for 60 mins in presence of ATP by Z'-LYTE assay
[19] = target: Vascular endothelial growth factor receptor 3 (Homo sapiens, UniProt P35916); experiment: Inhibition of recombinant human GST-tagged FLT4 cytoplasmic domain expressed in baculovirus expression system after 1 using tyrosine 4 as substrate after 1 hr in presence of ATP by ZYLTE assay

Chain of Tyrosine-protein kinase Mer (Q12866 whole entry, the tested form may be a part): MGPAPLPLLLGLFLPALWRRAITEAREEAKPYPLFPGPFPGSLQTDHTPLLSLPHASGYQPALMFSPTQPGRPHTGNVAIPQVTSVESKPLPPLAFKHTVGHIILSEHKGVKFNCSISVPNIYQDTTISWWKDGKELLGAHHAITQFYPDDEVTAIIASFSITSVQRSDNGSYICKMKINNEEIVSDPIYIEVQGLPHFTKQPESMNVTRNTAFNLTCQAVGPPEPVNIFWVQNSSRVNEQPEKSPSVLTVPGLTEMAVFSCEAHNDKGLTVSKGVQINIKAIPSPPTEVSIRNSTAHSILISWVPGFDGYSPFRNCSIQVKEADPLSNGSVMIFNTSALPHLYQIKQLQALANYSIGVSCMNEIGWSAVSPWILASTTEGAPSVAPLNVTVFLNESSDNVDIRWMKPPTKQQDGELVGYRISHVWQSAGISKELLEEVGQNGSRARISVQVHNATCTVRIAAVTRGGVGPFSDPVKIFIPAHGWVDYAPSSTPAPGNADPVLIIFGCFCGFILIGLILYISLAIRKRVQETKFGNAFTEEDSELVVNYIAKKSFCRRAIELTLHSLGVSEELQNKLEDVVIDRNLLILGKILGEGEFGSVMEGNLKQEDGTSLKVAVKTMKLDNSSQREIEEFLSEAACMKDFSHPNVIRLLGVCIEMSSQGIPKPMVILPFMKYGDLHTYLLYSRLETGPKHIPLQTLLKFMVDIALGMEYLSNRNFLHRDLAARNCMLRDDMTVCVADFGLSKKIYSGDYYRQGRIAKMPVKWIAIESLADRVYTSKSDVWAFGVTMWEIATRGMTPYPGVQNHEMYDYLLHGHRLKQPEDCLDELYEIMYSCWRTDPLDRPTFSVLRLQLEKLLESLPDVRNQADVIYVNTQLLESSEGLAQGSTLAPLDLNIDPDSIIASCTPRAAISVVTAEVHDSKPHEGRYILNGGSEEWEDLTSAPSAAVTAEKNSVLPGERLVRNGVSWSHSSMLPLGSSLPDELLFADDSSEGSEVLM

For `C[C@@H]1C[C@H]1C(=O)N1CCN(c2cnc(C#N)c(-c3cnn(C)c3)n2)C[C@H]1C`, the IC50 [1] was over 100 µM, the IC50 [2] was over 100 µM and the inhibition [3] was -1%. For the same compound, the inhibition [4] was -5%, the IC50 [5] was over 100 µM and the EC50 [6] was over 30 µM. It also gave an inhibition [7] of -1%, an IC50 (Ephrin type-B receptor 2) of over 100 µM and an IC50 [8] of over 100 µM. For the same compound, the inhibition [9] was 2%, the IC50 [10] was over 100 µM and the IC50 (CDK9/cyclin T1) was over 100 µM. For the same compound, the inhibition [11] was 8%, the IC50 (Aurora kinase A) was 16 µM and the IC50 [12] was over 100 µM. It also gave an IC50 [13] of over 100 µM, an IC50 [14] of over 100 µM and an IC50 (Insulin receptor) of over 100 µM. It also gave an IC50 (Focal adhesion kinase 1) of over 100 µM, an IC50 [15] of over 100 µM and an IC50 [16] of over 100 µM. It also gave an IC50 (Aurora kinase C) of over 100 µM, an inhibition [17] of 2% and an IC50 [18] of over 100 µM. It also gave an IC50 [19] of over 100 µM.
